Broadly, the pIC50 is −log10 of the IC50, conventionally taken in molar units.

pIC50: −log10 of the molar value. Where two headings read alike, the source gives them in different places. A value given as a limit tells only on which side of the number the result lay.

Holding throughout (type): cell-based
The target in test [1] is KDR (phospho-KDR, VEGF165-stimulated HUVEC cells) (Homo sapiens (Human), UniProt P35968). Briefly: KDR autophosphorylation ELISA in HUVEC cells (Example G). Particulars: cellular activity; KDR autophosphorylation ELISA in HUVEC cells. Put shortly: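 Read-out: phospho-KDR in cell lysates by DuoSet IC ELISA, normalised between VEGF-stimulated DMSO wells (100%) and unstimulated wells (0%). Human endothelial cells were starved overnight in serum-free medium, exposed to compound for 1 h, and then pulsed with 100 ng/mL VEGF165 for 5 min.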
For orientation: An ELISA detects its analyte on a solid surface through an enzyme-linked reagent.

The target of test [2] is AXL (phospho-AXL, Gas6-stimulated A-172 glioblastoma cells) (Homo sapiens (Human), UniProt P30530). Kind of test: AXL autophosphorylation ELISA in A-172 cells (Example E). Put shortly: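 Phospho-AXL was measured by ELISA in lysates of Gas6-stimulated A-172 cells, starved 24 h in serum-free medium and exposed 1 h to an 8-point compound dilution at 0.3% DMSO.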
Test [3] addresses Met (phospho-Met, HGF-stimulated PC-3 prostate cancer cells) (Homo sapiens (Human), UniProt P08581). Briefly: Met autophosphorylation ELISA in PC-3 cells (Example F). To be noted: cellular activity; Met autophosphorylation ELISA in PC-3 cells; read-out: c-Met IC50. The method, boiled down: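 IC50 values derive from a 4-parameter logistic fit of phospho-Met (panTyr) sandwich ELISA signals in PC-3 lysates, scaled between DMSO and reference-inhibitor wells. Cells, starved 3 h in serum-free medium, had 1 h compound exposure (8 doses, 0.3% DMSO) before 10 min stimulation with 100 ng/mL HGF.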

Test [4] concerns the target Mer (phospho-Mer, MERTK-transfected 293A cells) (Homo sapiens (Human), UniProt Q12866). Kind of test: Mer autophosphorylation ELISA in transient transfected 293A cells (Example H). To be noted: cellular activity; Mer autophosphorylation ELISA in transient transfected 293A cells. The method, boiled down: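 IC50 from 4-parameter logistic fit of phospho-Mer levels, quantified by ELISA against a phospho-Mer standard in lysates of MERTK-transfected 293A cells. Cells exposed 1 h to 8-point serial dilutions, serum-free, 0.3% DMSO; controls: DMSO (100%) and reference inhibitor (0%).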

The mark [5] stands for this setting: cellular activity, AXL autophosphorylation ELISA in A-172 cells, read-out: Axl IC50.

Chain of KDR (phospho-KDR, VEGF165-stimulated HUVEC cells) (P35968 20-1356): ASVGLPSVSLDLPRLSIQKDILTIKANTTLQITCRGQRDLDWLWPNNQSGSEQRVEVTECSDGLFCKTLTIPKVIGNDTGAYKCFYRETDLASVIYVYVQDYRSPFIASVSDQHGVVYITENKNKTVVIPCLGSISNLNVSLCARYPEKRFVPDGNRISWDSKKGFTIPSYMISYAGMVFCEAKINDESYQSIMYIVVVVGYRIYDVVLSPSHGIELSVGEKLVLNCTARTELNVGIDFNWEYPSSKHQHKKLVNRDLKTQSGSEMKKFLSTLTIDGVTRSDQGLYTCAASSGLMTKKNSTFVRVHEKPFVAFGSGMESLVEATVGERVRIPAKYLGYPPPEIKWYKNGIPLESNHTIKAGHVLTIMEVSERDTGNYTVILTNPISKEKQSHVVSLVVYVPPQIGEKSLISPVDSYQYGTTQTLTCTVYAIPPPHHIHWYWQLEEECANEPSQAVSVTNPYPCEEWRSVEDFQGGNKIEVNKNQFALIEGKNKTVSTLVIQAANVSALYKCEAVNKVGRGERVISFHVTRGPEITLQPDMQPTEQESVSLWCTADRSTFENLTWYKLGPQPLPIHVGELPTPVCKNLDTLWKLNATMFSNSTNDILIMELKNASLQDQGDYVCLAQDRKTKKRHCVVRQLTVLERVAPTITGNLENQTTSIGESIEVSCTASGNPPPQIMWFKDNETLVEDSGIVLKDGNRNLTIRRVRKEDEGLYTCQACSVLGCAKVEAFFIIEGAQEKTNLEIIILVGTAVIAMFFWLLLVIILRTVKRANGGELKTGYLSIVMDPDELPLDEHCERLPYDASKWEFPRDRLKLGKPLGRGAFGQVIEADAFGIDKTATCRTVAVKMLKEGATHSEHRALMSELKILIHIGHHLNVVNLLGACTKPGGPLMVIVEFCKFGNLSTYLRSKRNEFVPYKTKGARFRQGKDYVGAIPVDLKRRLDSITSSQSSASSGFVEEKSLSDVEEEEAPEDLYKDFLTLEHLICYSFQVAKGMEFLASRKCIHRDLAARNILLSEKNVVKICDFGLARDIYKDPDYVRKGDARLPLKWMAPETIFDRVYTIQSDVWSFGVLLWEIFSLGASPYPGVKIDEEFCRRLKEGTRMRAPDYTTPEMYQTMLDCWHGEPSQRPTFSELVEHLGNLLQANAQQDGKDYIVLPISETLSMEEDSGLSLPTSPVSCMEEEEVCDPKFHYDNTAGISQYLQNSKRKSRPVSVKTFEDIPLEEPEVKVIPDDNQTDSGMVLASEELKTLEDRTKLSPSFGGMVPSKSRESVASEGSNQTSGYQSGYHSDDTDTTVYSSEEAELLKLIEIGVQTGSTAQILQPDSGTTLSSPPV
Chain of AXL (phospho-AXL, Gas6-stimulated A-172 glioblastoma cells) (P30530 26-894): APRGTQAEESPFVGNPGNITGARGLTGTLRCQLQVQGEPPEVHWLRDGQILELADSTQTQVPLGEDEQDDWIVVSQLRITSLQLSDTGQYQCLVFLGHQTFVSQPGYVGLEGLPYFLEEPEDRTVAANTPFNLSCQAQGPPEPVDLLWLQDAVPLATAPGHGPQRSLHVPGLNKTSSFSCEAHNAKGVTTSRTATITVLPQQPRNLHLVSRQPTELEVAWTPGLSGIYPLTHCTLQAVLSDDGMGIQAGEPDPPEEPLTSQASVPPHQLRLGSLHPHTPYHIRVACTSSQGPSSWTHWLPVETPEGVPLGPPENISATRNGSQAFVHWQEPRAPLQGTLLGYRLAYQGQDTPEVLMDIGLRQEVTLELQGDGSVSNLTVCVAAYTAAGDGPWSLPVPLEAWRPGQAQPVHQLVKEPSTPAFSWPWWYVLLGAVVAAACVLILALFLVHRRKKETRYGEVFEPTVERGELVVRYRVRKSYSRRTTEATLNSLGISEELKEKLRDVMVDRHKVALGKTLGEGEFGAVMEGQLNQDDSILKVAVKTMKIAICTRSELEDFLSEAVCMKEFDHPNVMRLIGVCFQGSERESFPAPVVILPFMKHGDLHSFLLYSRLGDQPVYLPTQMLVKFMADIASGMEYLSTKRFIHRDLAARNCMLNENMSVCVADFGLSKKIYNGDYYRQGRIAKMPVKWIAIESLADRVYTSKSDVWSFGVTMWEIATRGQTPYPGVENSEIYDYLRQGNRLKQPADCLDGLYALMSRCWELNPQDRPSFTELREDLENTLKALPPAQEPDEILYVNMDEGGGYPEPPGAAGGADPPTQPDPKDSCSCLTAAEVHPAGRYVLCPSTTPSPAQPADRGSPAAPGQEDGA
Chain of Mer (phospho-Mer, MERTK-transfected 293A cells) (Q12866 21-999): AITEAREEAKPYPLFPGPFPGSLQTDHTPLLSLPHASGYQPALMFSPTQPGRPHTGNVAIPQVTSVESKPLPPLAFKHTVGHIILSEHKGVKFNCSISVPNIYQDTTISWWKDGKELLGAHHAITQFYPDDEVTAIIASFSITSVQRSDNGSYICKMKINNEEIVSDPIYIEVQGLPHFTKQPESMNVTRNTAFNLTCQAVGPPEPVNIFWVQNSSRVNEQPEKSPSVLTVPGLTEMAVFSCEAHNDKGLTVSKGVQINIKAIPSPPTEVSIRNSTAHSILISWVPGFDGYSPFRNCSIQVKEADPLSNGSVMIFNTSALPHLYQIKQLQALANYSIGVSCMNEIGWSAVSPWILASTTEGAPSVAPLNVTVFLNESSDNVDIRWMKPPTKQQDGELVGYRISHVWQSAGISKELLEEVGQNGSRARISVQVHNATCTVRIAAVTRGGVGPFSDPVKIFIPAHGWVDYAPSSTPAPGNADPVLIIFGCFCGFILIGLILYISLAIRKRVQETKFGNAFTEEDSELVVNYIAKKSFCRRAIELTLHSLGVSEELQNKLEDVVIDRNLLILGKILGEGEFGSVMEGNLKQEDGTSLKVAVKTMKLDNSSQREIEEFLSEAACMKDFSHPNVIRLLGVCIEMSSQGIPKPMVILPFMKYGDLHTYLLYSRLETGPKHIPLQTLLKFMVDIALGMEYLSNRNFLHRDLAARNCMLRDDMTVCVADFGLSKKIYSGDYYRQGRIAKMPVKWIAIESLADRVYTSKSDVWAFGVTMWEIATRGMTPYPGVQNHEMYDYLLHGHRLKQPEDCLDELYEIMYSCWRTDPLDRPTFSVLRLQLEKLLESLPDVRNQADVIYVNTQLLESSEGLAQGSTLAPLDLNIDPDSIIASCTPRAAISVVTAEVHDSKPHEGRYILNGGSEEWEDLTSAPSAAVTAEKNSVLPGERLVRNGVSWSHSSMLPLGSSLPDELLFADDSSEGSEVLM
Chain of Met (phospho-Met, HGF-stimulated PC-3 prostate cancer cells) (P08581 25-1390): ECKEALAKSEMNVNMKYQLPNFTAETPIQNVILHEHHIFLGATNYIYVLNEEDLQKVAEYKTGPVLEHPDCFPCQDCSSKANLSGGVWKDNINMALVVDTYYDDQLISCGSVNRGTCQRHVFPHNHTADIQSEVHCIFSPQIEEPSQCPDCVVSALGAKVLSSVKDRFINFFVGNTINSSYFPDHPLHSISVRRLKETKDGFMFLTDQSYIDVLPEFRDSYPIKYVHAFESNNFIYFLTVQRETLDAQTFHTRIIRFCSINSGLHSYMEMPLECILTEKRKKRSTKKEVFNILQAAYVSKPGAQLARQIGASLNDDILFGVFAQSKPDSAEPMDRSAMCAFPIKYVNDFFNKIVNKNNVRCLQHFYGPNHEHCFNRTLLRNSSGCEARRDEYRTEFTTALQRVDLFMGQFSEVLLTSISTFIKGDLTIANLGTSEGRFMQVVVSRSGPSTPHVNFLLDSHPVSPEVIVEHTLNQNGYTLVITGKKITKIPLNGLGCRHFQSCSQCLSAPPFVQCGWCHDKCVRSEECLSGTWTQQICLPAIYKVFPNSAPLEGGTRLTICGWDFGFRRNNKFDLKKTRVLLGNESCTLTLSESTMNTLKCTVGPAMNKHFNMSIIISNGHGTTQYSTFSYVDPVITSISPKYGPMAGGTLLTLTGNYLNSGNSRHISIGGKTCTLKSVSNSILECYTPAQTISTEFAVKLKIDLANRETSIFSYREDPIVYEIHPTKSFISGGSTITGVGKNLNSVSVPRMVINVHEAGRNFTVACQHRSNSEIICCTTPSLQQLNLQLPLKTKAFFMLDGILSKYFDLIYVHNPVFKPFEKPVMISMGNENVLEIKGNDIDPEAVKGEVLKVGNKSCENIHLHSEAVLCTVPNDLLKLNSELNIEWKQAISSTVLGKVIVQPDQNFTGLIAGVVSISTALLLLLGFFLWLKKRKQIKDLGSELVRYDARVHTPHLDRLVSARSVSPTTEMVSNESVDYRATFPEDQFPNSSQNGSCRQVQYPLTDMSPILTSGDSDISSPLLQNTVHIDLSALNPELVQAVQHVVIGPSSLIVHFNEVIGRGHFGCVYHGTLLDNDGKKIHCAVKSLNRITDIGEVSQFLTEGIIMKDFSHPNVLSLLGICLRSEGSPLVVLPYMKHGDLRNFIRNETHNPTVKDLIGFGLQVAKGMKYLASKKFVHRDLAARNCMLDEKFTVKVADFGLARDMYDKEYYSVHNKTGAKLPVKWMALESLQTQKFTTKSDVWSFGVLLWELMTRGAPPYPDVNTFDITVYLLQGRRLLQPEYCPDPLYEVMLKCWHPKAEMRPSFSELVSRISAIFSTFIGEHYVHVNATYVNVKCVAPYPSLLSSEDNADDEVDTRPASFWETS

Regarding `CNc1c(C(=O)Nc2ccc(Oc3ccnc4cc(OC)c(OC)nc34)c(F)c2)c(=O)c(-c2ccc(F)cc2)c(C)n1C` [Compound 649, N-[4-[(6,7-dimethoxy-1,5-naphthyridin-4-yl)oxy]-3-fluorophenyl]-5-(4-fluorophenyl)-1,6-dimethyl-2-(methylamino)-4-oxopyridine-3-carboxamide], the pIC50 in test [1] was below 6.52; in test [2] (setting [5]), 6.52 to 7.00; in test [3], above 7.00; in test [4], above 7.00.
For `COc1cc2nccc(Oc3ccc(NC(=O)c4c(C)nc(C)c(-c5ccc(F)cc5C)c4O)cc3)c2nc1OC` [Compound 681, N-[4-[(6,7-dimethoxy-1,5-naphthyridin-4-yl)oxy]phenyl]-5-(4-fluoro-2-methylphenyl)-4-hydroxy-2,6-dimethylpyridine-3-carboxamide], the pIC50 in test [1], in test [2] (setting [5]), in test [3] and in test [4] was above 7.00 in each case.
Consider `COc1cnc2c(Oc3ccc(NC(=O)c4c(C)ncc(-c5ccc(F)c(C)c5)c4O)cc3F)ccnc2c1` [Compound 795, N-[3-fluoro-4-[(7-methoxy-1,5-naphthyridin-4-yl)oxy]phenyl]-5-(4-fluoro-3-methylphenyl)-4-hydroxy-2-methylpyridine-3-carboxamide], for which the negative-log IC50 (pIC50) in test [1], in test [2] (setting [5]), in test [3] and in test [4] was above 7.00 each time.
`CCOc1nc2c(Oc3ccc(NC(=O)c4cnc(C)c(-c5ccc(F)cc5C)c4O)cc3F)ccnc2cc1OC` [Compound 677, N-[4-[(6-ethoxy-7-methoxy-1,5-naphthyridin-4-yl)oxy]-3-fluorophenyl]-5-(4-fluoro-2-methylphenyl)-4-hydroxy-6-methylpyridine-3-carboxamide]: the pIC50 in test [1], in test [2] (setting [5]), in test [3] and in test [4] was above 7.00 in each case.
On to `COc1cc2nccc(Oc3ccc(NC(=O)c4c(C)c(Br)c(C)n(-c5ccccc5)c4=O)cc3F)c2nc1OC` [Compound 747, 5-bromo-N-[4-[(6,7-dimethoxy-1,5-naphthyridin-4-yl)oxy]-3-fluorophenyl]-4,6-dimethyl-2-oxo-1-phenylpyridine-3-carboxamide], for which the pIC50 was 6.52 to 7.00 in test [1], above 7.00 in test [2] (setting [5]), above 7.00 in test [3] and above 7.00 in test [4].
Consider `COc1cc2nccc(Oc3ccc(NC(=O)c4nnc(C)c(-c5ccc(F)cc5)c4OC(C)C)cc3F)c2cc1OC` [Compound 574, N-[4-(6,7-Dimethoxyquinolin-4-yl)oxy-3-fluorophenyl]-5-(4-fluorophenyl)-6-methyl-4-propan-2-yloxypyridazine-3-carboxamide], for which the pIC50 in test [1], in test [2] (setting [5]), in test [3] and in test [4] was above 7.00 in each case.
`COc1cnc2c(Oc3ccc(NC(=O)c4c(C)nc(C)c(-c5ccc(OC)c(C)c5)c4O)cc3F)ccnc2c1` [Compound 692, N-[3-fluoro-4-[(7-methoxy-1,5-naphthyridin-4-yl)oxy]phenyl]-4-hydroxy-5-(4-methoxy-3-methylphenyl)-2,6-dimethylpyridine-3-carboxamide]: the pIC50 was above 7.00 in test [1], 6.52 to 7.00 in test [2] (setting [5]), above 7.00 in test [3] and above 7.00 in test [4].
As to `COc1cc2nccc(Oc3ccc(NC(=O)c4c(C)c(C)c(C)n(-c5ccc(F)cc5)c4=O)cc3)c2nc1OC` [Compound 315, N-[4-[(6,7-Dimethoxy-1,5-naphthyridin-4-yl)oxy]phenyl]-1-(4-fluorophenyl)-4,5,6-trimethyl-2-oxopyridine-3-carboxamide], the negative logarithm of the IC50 (pIC50) in test [1], in test [2] (setting [5]), in test [3] and in test [4] was above 7.00 each time.
For the compound `COc1cc2nccc(Oc3ccc(NC(=O)c4cn5c(c(-c6ccc(F)cc6)c4=O)CCC5)cc3F)c2nc1OC` [Compound 362, N-[4-[(6,7-dimethoxy-1,5-naphthyridin-4-yl)oxy]-3-fluorophenyl]-8-(4-fluorophenyl)-7-oxo-2,3-dihydro-1H-indolizine-6-carboxamide], the pIC50 in test [1], in test [2] (setting [5]), in test [3] and in test [4] was above 7.00 in each case.
Turning to `COc1cnc2c(Oc3ccc(NC(=O)c4c(C)nc(C)c(-c5ccc(F)cc5OC)c4O)cc3F)ccnc2c1` [Compound 686, N-[3-fluoro-4-[(7-methoxy-1,5-naphthyridin-4-yl)oxy]phenyl]-5-(4-fluoro-2-methoxyphenyl)-4-hydroxy-2,6-dimethylpyridine-3-carboxamide], the negative logarithm of the IC50 (pIC50) in test [1], in test [2] (setting [5]), in test [3] and in test [4] was above 7.00 each time.
As for `COc1cc2nccc(Oc3cc(F)c(NC(=O)c4cn(C)c(C)c(-c5ccc(F)cc5)c4=O)cc3C)c2nc1OC` [Compound 746, N-[4-[(6,7-dimethoxy-1,5-naphthyridin-4-yl)oxy]-2-fluoro-5-methylphenyl]-5-(4-fluorophenyl)-1,6-dimethyl-4-oxopyridine-3-carboxamide], the pIC50 in test [1] is below 6.52; in test [2] (setting [5]), above 7.00; in test [3], above 7.00; in test [4], above 7.00.
As for `COCCOc1nc2c(Oc3ccc(NC(=O)c4c(C)nc(C)c(-c5ccc(F)cc5C)c4O)cc3F)ccnc2cc1OC` [Compound 208, N-[3-Fluoro-4-[[7-methoxy-6-(2-methoxyethoxy)-1,5-naphthyridin-4-yl]oxy]phenyl]-5-(4-fluoro-2-methylphenyl)-4-hydroxy-2,6-dimethylpyridine-3-carboxamide], the pIC50 in test [1], in test [2] (setting [5]), in test [3] and in test [4] was above 7.00 throughout.
On to `COc1cc2nccc(Oc3ccc(NC(=O)c4c(C)n(C)nc(-c5ccc(F)cc5)c4=O)cc3F)c2nc1OC` [Compound 655, N-[4-[(6,7-dimethoxy-1,5-naphthyridin-4-yl)oxy]-3-fluorophenyl]-6-(4-fluorophenyl)-2,3-dimethyl-5-oxopyridazine-4-carboxamide], for which the negative-log IC50 (pIC50) in test [1], in test [2] (setting [5]), in test [3] and in test [4] was above 7.00 each time.
Take `COc1cc2nccc(Oc3ccc(NC(=O)c4c(C)n(C)nc(-c5ccc(F)cc5C)c4=O)cc3F)c2nc1OC` [Compound 750, N-[4-[(6,7-dimethoxy-1,5-naphthyridin-4-yl)oxy]-3-fluorophenyl]-6-(4-fluoro-2-methylphenyl)-2,3-dimethyl-5-oxopyridazine-4-carboxamide]: the pIC50 was 6.52 to 7.00 in test [1], above 7.00 in test [2], above 7.00 in test [3] and above 7.00 in test [4].
As to `CCOCc1nc(C)c(-c2ccc(F)cc2C)c(O)c1C(=O)Nc1ccc(Oc2ccnc3cc(OC)cnc23)c(F)c1` [Compound 667, 2-(ethoxymethyl)-N-[3-fluoro-4-[(7-methoxy-1,5-naphthyridin-4-yl)oxy]phenyl]-5-(4-fluoro-2-methylphenyl)-4-hydroxy-6-methylpyridine-3-carboxamide], the pIC50 was below 6.52 in test [1], above 7.00 in test [2] (setting [5]), above 7.00 in test [3] and above 7.00 in test [4].
In the case of `COc1cc2nccc(Oc3ccc(NC(=O)c4nnc(C)c(-c5ccc(F)cc5)c4OC)cc3F)c2nc1OC` [Compound 531, N-[4-[(6,7-dimethoxy-1,5-naphthyridin-4-yl)oxy]-3-fluorophenyl]-5-(4-fluorophenyl)-4-methoxy-6-methylpyridazine-3-carboxamide], the pIC50 in test [1], in test [2] (setting [5]), in test [3] and in test [4] was above 7.00 in each case.
With `COc1cc2nccc(Oc3ccc(NC(=O)c4cccn(-c5ccc(F)cc5)c4=O)cc3)c2nc1OC` [Compound 361, N-[4-[(6,7-dimethoxy-1,5-naphthyridin-4-yl)oxy]phenyl]-1-(4-fluorophenyl)-2-oxopyridine-3-carboxamide], the pIC50 in test [1], in test [2] (setting [5]), in test [3] and in test [4] was above 7.00 in each case.
Regarding `COc1cnc2c(Oc3ccc(NC(=O)c4c(C)c(C)c(C)n(-c5ccc(F)cc5)c4=O)cc3F)ccnc2c1` [Compound 316, N-[3-Fluoro-4-[(7-methoxy-1,5-naphthyridin-4-yl)oxy]phenyl]-1-(4-fluorophenyl)-4,5,6-trimethyl-2-oxopyridine-3-carboxamide], the negative-log IC50 (pIC50) in test [1], in test [2] (setting [5]), in test [3] and in test [4] was above 7.00 throughout.

The values are drawn from patent publication US12371428B2 (Exelixis, Inc., priority 2019, dated 2025).
